The values that follow come from patent publication US9713651B2, “Compositions, methods, and systems for the synthesis and use of imaging agents” (Lantheus Medical Imaging, Inc., priority 2012, dated 2017).

The series in a line: Tissue distribution of 18F imaging agents in rats. The format is in vivo, Male Sprague Dawley rats. To be noted: rat, iv tail vein ~15 μCi, ± SEM; for Blood, imaging agent distribution at 15 min / Brain, imaging agent distribution at 15 min / Femur, imaging agent distribution at 15 min / Heart, imaging agent distribution at 15 min / Kidney, imaging agent distribution at 15 min / Liver, imaging agent distribution at 15 min / Lung, imaging agent distribution at 15 min / Muscle, imaging agent distribution at 15 min / Pancreas, imaging agent distribution at 15 min / Spleen, imaging agent distribution at 15 min: 15 min post injection; for Blood, imaging agent distribution at 60 min / Brain, imaging agent distribution at 60 min / Femur, imaging agent distribution at 60 min / Heart, imaging agent distribution at 60 min / Kidney, imaging agent distribution at 60 min / Liver, imaging agent distribution at 60 min / Lung, imaging agent distribution at 60 min / Muscle, imaging agent distribution at 60 min / Pancreas, imaging agent distribution at 60 min / Spleen, imaging agent distribution at 60 min: 60 min post injection. How it is done:
Anesthetized (sodium pentobarbital at 50 mg/kg, ip or isoflurane gas inhalation) Male Sprague Dawley rats (250-350 g) received an iv injection of the imaging agent (˜15 μCi) via the tail vein. At 15 or 60 min post injection, the animals were euthanized and the required tissue samples harvested. All samples were then weighed and counted for radioactivity (Wallac Wizard 1480 or Packard Cobra II Autogamma); regional tissue uptake of the imaging agent was thus expressed as a percentage of the total injected dose per gram of tissue (% ID/g).
The generic structure depicted below highlights specific structural features evaluated during distribution experiments.

Regarding `[2H]C([2H])(OCCF)c1ccc(COc2cnn(C(C)(C)C)c(=O)c2Cl)cc1` [Example 67E], the “Blood, imaging agent distribution at 15 min” value (from here on “Blood … at 15 min”) is recorded as 0.17 ± 0.02 % ID/g; the “Brain, imaging agent distribution at 15 min” value (“Brain … at 15 min” for short) is 0.97 ± 0.11 % ID/g; the “Femur, imaging agent distribution at 15 min” value (“Femur … at 15 min” below) amounted to 0.50 ± 0.04 % ID/g; the “Heart, imaging agent distribution at 15 min” value (“Heart … at 15 min” below) came to 4.80 ± 0.27 % ID/g. Besides, the “Kidney, imaging agent distribution at 15 min” value (“Kidney … at 15 min” below) is given as 2.61 ± 0.18 % ID/g; the “Liver, imaging agent distribution at 15 min” value (“Liver … at 15 min” for short) came out at 0.66 ± 0.09 % ID/g; the “Lung, imaging agent distribution at 15 min” value (“Lung … at 15 min” for short) was found to be 0.39 ± 0.05 % ID/g; the “Muscle, imaging agent distribution at 15 min” value (“Muscle … at 15 min” below) stood at 0.77 ± 0.09 % ID/g. Also, the “Pancreas, imaging agent distribution at 15 min” value (“Pancreas … at 15 min” for short) is on record as 0.82 ± 0.07 % ID/g; the “Spleen, imaging agent distribution at 15 min” value (from here on “Spleen … at 15 min”) was 0.36 ± 0.08 % ID/g; the “Blood, imaging agent distribution at 60 min” value (from here on “Blood … at 60 min”) came out at 0.26 ± 0.03 % ID/g; the “Brain, imaging agent distribution at 60 min” value (“Brain … at 60 min” for short) came out at 0.62 ± 0.04 % ID/g. The “Femur, imaging agent distribution at 60 min” value (“Femur … at 60 min” below) turned out to be 0.69 ± 0.05 % ID/g; the “Heart, imaging agent distribution at 60 min” value (“Heart … at 60 min” below) is listed as 3.61 ± 0.45 % ID/g; the “Kidney, imaging agent distribution at 60 min” value (“Kidney … at 60 min” below) is 0.98 ± 0.04 % ID/g; the “Liver, imaging agent distribution at 60 min” value (“Liver … at 60 min” for short) came to 0.53 ± 0.06 % ID/g. For the same molecule, the “Lung, imaging agent distribution at 60 min” value (“Lung … at 60 min” for short) came to 0.34 ± 0.03 % ID/g; the “Muscle, imaging agent distribution at 60 min” value (“Muscle … at 60 min” below) was 0.69 ± 0.17 % ID/g; the “Pancreas, imaging agent distribution at 60 min” value (“Pancreas … at 60 min” for short) was 0.43 ± 0.05 % ID/g; the “Spleen, imaging agent distribution at 60 min” value (from here on “Spleen … at 60 min”) was 0.25 ± 0.01 % ID/g.

Take `CC(C)(C)n1ncc(OCc2ccc(-c3cnc(F)nc3)cc2)c(Cl)c1=O` [Example 67L]: the “Blood … at 15 min” value is listed as 0.14 ± 0.01 % ID/g; the “Brain … at 15 min” value turned out to be 0.30 ± 0.05 % ID/g; the “Femur … at 15 min” value is given as 0.31 ± 0.01 % ID/g; the “Heart … at 15 min” value was found to be 1.19 ± 0.18 % ID/g. Besides, the “Kidney … at 15 min” value stood at 0.65 ± 0.07 % ID/g; the “Liver … at 15 min” value is 1.71 ± 0.36 % ID/g; the “Lung … at 15 min” value is 0.29 ± 0.03 % ID/g; the “Muscle … at 15 min” value was found to be 0.27 ± 0.02 % ID/g. Moreover, the “Pancreas … at 15 min” value stood at 0.36 ± 0.06 % ID/g; the “Spleen … at 15 min” value worked out at 0.18 ± 0.01 % ID/g; the “Blood … at 60 min” value was found to be 0.10 ± 0.02 % ID/g; the “Brain … at 60 min” value was determined as 0.22 ± 0.03 % ID/g. Besides, the “Femur … at 60 min” value came to 0.78 ± 0.15 % ID/g; the “Heart … at 60 min” value is on record as 0.62 ± 0.12 % ID/g; the “Kidney … at 60 min” value came out at 0.40 ± 0.08 % ID/g; the “Liver … at 60 min” value is 2.06 ± 0.27 % ID/g. Further, the “Lung … at 60 min” value is reported as 0.21 ± 0.02 % ID/g; the “Muscle … at 60 min” value came to 0.20 ± 0.06 % ID/g; the “Pancreas … at 60 min” value is 0.33 ± 0.08 % ID/g; the “Spleen … at 60 min” value was 0.11 ± 0.02 % ID/g.

In the case of `CC(C)(C)n1ncc(OCc2ccc(OCCOCCF)cc2)c(Cl)c1=O` [Example 67B], the “Blood … at 15 min” value was found to be 0.49 ± 0.02 % ID/g; the “Femur … at 15 min” value is recorded as 0.80 ± 0.12 % ID/g; the “Heart … at 15 min” value is listed as 1.66 ± 0.06 % ID/g; the “Kidney … at 15 min” value was determined as 2.25 ± 0.05 % ID/g. The “Liver … at 15 min” value was 2.33 ± 0.09 % ID/g; the “Lung … at 15 min” value was determined as 0.49 ± 0.04 % ID/g; the “Muscle … at 15 min” value stood at 0.19 ± 0.00 % ID/g; the “Spleen … at 15 min” value amounted to 0.41 ± 0.01 % ID/g. The “Blood … at 60 min” value is reported as 0.26 ± 0.04 % ID/g; the “Femur … at 60 min” value is listed as 0.78 ± 0.22 % ID/g; the “Heart … at 60 min” value is recorded as 1.58 ± 0.13 % ID/g; the “Kidney … at 60 min” value is reported as 1.17 ± 0.20 % ID/g. The “Liver … at 60 min” value is on record as 1.34 ± 0.22 % ID/g; the “Lung … at 60 min” value came out at 0.27 ± 0.03 % ID/g; the “Muscle … at 60 min” value is given as 0.15 ± 0.04 % ID/g; the “Spleen … at 60 min” value is recorded as 0.20 ± 0.04 % ID/g.

With `CC(C)(C)n1ncc(OCc2ccc(C#CCCF)cc2)c(Cl)c1=O` [Example 67K], the “Blood … at 15 min” value was 0.07 ± 0.03 % ID/g; the “Brain … at 15 min” value stood at 0.36 ± 0.04 % ID/g; the “Femur … at 15 min” value amounted to 0.27 ± 0.02 % ID/g; the “Heart … at 15 min” value is 2.68 ± 0.35 % ID/g. The “Kidney … at 15 min” value was found to be 1.35 ± 0.14 % ID/g; the “Liver … at 15 min” value is on record as 0.99 ± 0.06 % ID/g; the “Lung … at 15 min” value is listed as 0.37 ± 0.15 % ID/g; the “Muscle … at 15 min” value is on record as 0.28 ± 0.02 % ID/g. Moreover, the “Pancreas … at 15 min” value came to 0.55 ± 0.10 % ID/g; the “Spleen … at 15 min” value is recorded as 0.31 ± 0.09 % ID/g; the “Blood … at 60 min” value came out at 0.03 ± 0.00 % ID/g; the “Brain … at 60 min” value is 0.36 ± 0.03 % ID/g. In addition, the “Femur … at 60 min” value was found to be 0.37 ± 0.05 % ID/g; the “Heart … at 60 min” value is 2.46 ± 0.27 % ID/g; the “Kidney … at 60 min” value is given as 0.83 ± 0.08 % ID/g; the “Liver … at 60 min” value was 0.83 ± 0.17 % ID/g. The “Lung … at 60 min” value is on record as 0.15 ± 0.03 % ID/g; the “Muscle … at 60 min” value came to 0.39 ± 0.04 % ID/g; the “Pancreas … at 60 min” value is listed as 0.38 ± 0.02 % ID/g; the “Spleen … at 60 min” value is reported as 0.11 ± 0.02 % ID/g.

In the case of `CC(C)(C)n1ncc(OCc2cccc(COCCF)c2)c(Cl)c1=O` [Example 67A], the “Blood … at 15 min” value turned out to be 0.03 ± 0.01 % ID/g; the “Brain … at 15 min” value came to 0.14 ± 0.05 % ID/g; the “Femur … at 15 min” value is given as 0.06 ± 0.02 % ID/g; the “Heart … at 15 min” value is 0.65 ± 0.36 % ID/g. For the same molecule, the “Kidney … at 15 min” value came out at 0.38 ± 0.08 % ID/g; the “Liver … at 15 min” value was determined as 0.08 ± 0.03 % ID/g; the “Lung … at 15 min” value is listed as 0.07 ± 0.01 % ID/g; the “Muscle … at 15 min” value came to 0.09 ± 0.04 % ID/g. Also, the “Pancreas … at 15 min” value was 0.15 ± 0.05 % ID/g; the “Spleen … at 15 min” value is 0.05 ± 0.01 % ID/g; the “Blood … at 60 min” value was found to be 0.11 ± 0.02 % ID/g; the “Brain … at 60 min” value came out at 0.14 ± 0.03 % ID/g. For the same molecule, the “Femur … at 60 min” value was 0.17 ± 0.04 % ID/g; the “Heart … at 60 min” value was 0.84 ± 0.22 % ID/g; the “Kidney … at 60 min” value worked out at 0.23 ± 0.03 % ID/g; the “Liver … at 60 min” value amounted to 0.11 ± 0.02 % ID/g. Further, the “Lung … at 60 min” value worked out at 0.11 ± 0.02 % ID/g; the “Muscle … at 60 min” value stood at 0.18 ± 0.04 % ID/g; the “Pancreas … at 60 min” value came out at 0.13 ± 0.03 % ID/g; the “Spleen … at 60 min” value was found to be 0.09 ± 0.02 % ID/g.

In the case of `CC(C)(C)n1ncc(CCc2ccc(COCCF)cc2)c(Cl)c1=O` [Example 67M], the “Blood … at 15 min” value is 0.53 ± 0.13 % ID/g; the “Brain … at 15 min” value is 0.55 ± 0.31 % ID/g; the “Femur … at 15 min” value is recorded as 0.52 ± 0.19 % ID/g; the “Heart … at 15 min” value was found to be 2.54 ± 0.20 % ID/g. In addition, the “Kidney … at 15 min” value was found to be 0.79 ± 0.07 % ID/g; the “Liver … at 15 min” value turned out to be 0.96 ± 0.10 % ID/g; the “Lung … at 15 min” value is on record as 0.97 ± 0.13 % ID/g; the “Muscle … at 15 min” value was 0.24 ± 0.04 % ID/g. Also, the “Spleen … at 15 min” value turned out to be 0.35 ± 0.05 % ID/g; the “Blood … at 60 min” value was determined as 0.73 ± 0.16 % ID/g; the “Brain … at 60 min” value was found to be 2.33 ± 0.12 % ID/g; the “Femur … at 60 min” value came to 0.43 ± 0.03 % ID/g. The “Heart … at 60 min” value amounted to 0.55 ± 0.06 % ID/g; the “Kidney … at 60 min” value amounted to 0.43 ± 0.04 % ID/g; the “Liver … at 60 min” value was found to be 0.43 ± 0.04 % ID/g; the “Lung … at 60 min” value was determined as 1.03 ± 0.22 % ID/g. The “Muscle … at 60 min” value is 0.31 ± 0.04 % ID/g and the “Spleen … at 60 min” value was 0.26 ± 0.03 % ID/g.
